The structures appear in SMILES notation.

The nature of the data set: gradient 5% acetonitrile 3 min, to 50% in 2 min, to 85% in 15 min, held 3 min, 100 µL/min. The following applies: column: Zorbax Extend-C18 2.1 x 50 mm; eluents: water / acetonitrile, 0.1% formic acid. A digest of the protocol:
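Each retention time is based on an adduct peak selected computationally and verified by manual inspection. Measurements used HPLC–quadrupole time-of-flight mass spectrometry in positive and negative ionization mode on mixtures of ~100 pure standards. Chromatography ran on a Zorbax Extend-C18 column (2.1 × 50 mm, 1.8 μm) at 100 μL/min with water and acetonitrile, each containing 0.1% formic acid, and dead and dwell volumes of 40 μL and 900 μL.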
`CCN1CCCn2cc(S(=O)(=O)Nc3ccc(OC)cc3)cc2C1=O` returned an RP-LC retention time of 680 s.
As for `COc1ccc(-c2cn3c(CC(=O)Nc4cc(C)ccc4C)csc3n2)cc1OC`, the RP-LC retention time amounted to 746 s.
With `COc1ncc(C(=O)Nc2cc(C)ccc2C)c(C)n1` the figure was 748 s; with `Cc1ccc(-n2c(N3CCC(C(=O)NCC4CC4)CC3)nc3ccsc3c2=O)cc1`, 808 s; with `O=C(Nc1ccc(SCc2nnc(-c3ccccc3)o2)cc1)C1CC1`, 870 s.
With `Cc1ccc(-n2ncc3c(=O)n(Cc4nc(-c5cccc(Br)c5)no4)cnc32)cc1` the figure was 1180 s; with `Cc1cc(-c2nnc(-c3ccccc3)o2)c(C)n1CC(=O)Nc1ccccc1F`, 952 s; with `Cc1ccc(F)cc1NC(=O)Cn1nc(N(C)C)c2ccccc2c1=O`, 860 s.
With `CCSc1nnc(NC(=O)CSc2ncnc3ccccc23)s1` the figure was 733 s.
`O=C(c1cc(-c2ccccc2)n[nH]1)N1CCN(c2cc(-c3ccccc3)ncn2)CC1` showed an RP-LC retention time of 609 s.
The figure for `CCCOc1nc2ccccc2nc1N1CCCC(C(=O)Nc2ccc(OC)c(OC)c2)C1` (stereo not drawn) is 1130 s; for `COc1cc2ncc(C(=O)c3ccc(C)c(C)c3)c(N3CCN(C)CC3)c2cc1OC` it is 570 s.
The compound `Cc1ccc(-c2noc(Cn3c(=O)n(-c4ccccc4F)c(=O)c4sccc43)n2)cc1C` displayed an RP-LC retention time of 1090 s.
As for `CN(C)c1ccc2c(c1)CN(C(=O)C1COc3ccccc3O1)CCO2` (stereo not drawn), the RP-LC retention time was determined as 679 s.
The compound `CN(CC1(C)CCOCC1)C(=O)Cc1ccccc1Cl` came in with an RP-LC retention time of 818 s.
With `CC(NC(=O)C1c2ccccc2CCN1C(=O)C1CC1)c1ccc(F)cc1` (stereo not drawn) the figure was 875 s.
The figure for `Cc1ccn2c(NC(=O)c3ccc([N+](=O)[O-])cc3)c(-c3ccccc3)nc2c1` is 667 s.
On to `COCCn1cc(CCNC(=O)Nc2cccc(F)c2)c2cccnc21`, for which the RP-LC retention time turned out to be 732 s.
With `Cc1ccc(-c2cn(CC(=O)N3CCN(c4ccc(C)cc4)CC3)c(=O)o2)cc1` the figure was 975 s; with `CN(CCc1noc(COc2ccccc2F)n1)C(=O)c1c(F)cccc1F`, 885 s; with `O=C(NC1CCCCC1)NC1CCN(C(=O)C2CC2)C1` (stereo not drawn), 663 s.
The figure for `Cc1nn(-c2ccccc2)c(C)c1S(=O)(=O)N1CCC(C(=O)Nc2ccc3c(c2)OCCO3)CC1` is 914 s; for `COc1ccc2[nH]cc(CCNC(=O)c3cc4n(n3)CCCN(Cc3ccc(Cl)cc3)C4=O)c2c1` it is 693 s; for `COc1ccc(C2Cn3nnc(-c4nc(-c5ccc(OC(F)(F)F)cc5)no4)c3CO2)cc1` (stereo not drawn) it is 1240 s.
`O=S(=O)(c1cccn2c(SCc3ccc(Cl)cc3)nnc12)N1CCCC1` came in with an RP-LC retention time of 848 s.
The figure for `COCCCNC(=O)C1CCCN(C(=O)c2[nH]c(C)cc2C)C1` (stereo not drawn) is 652 s.
Consider `O=S(=O)(c1cc(-c2cc(C(F)(F)F)on2)cs1)N1CCN(c2cccc(Cl)c2)CC1`, for which the RP-LC retention time amounted to 1300 s.
With `CCN(CC)c1nc2cc(C(=O)NCC(C)C)ccc2c(=O)n1Cc1ccccc1` the figure was 1090 s.
The figure for `O=C(Nc1ccc(C2(C(=O)NCc3ccc(F)c(Cl)c3)CCC2)cc1)C1CC1` is 903 s.
`Cc1ccc(-c2nc(C3CCN(S(=O)(=O)c4cccc(F)c4)CC3)no2)cc1` had an RP-LC retention time of 1160 s.
On to `Cc1cc(N2CCC(NC(=O)Nc3ccccc3)C2=O)ccc1F` (stereo not drawn), for which the RP-LC retention time came out at 824 s.
Compound `CC(C)CCNC(=O)Cn1c(=O)c(S(=O)(=O)c2ccccc2)cc2ccccc21` had an RP-LC retention time of 866 s.
The compound `CC1CCCN(C(=O)c2ccc3c(c2)Sc2ncccc2C(=O)N3C(C)C)C1` (stereo not drawn) displayed an RP-LC retention time of 850 s.
With `CCn1cc(CCNC(=O)c2ccc(OC)cc2)c2cccnc21` the figure was 675 s; with `CCn1nccc1-c1cccc(-c2noc(CNC(=O)Cc3ccccc3)n2)c1`, 855 s.
The figure for `O=S(=O)(Cc1ccc(F)cc1)NCCc1csc2nc(-c3cccs3)nn12` is 822 s; for `Cc1cc(Cl)ccc1NC(=O)N1CCCC1c1nnc2n1CCN(C)CC2` (stereo not drawn) it is 584 s.
With `O=C1C2N=NN(Cc3nc(-c4ccc(Br)cc4)no3)C2C(=O)N1c1cccc(F)c1` (stereo not drawn) the figure was 1080 s.
In turn, `CCn1cnc2ccc(-c3noc(COc4ccc(Cl)cc4)n3)cc21` had an RP-LC retention time of 815 s.
With `CNC(=O)c1csc(N2CCCC2)n1` the figure was 671 s; with `O=C(C1Sc2ccccc2N(CC(=O)N2CCc3ccccc32)C1=O)N1CCCCCC1` (stereo not drawn), 987 s; with `CN(C)S(=O)(=O)N(CC(=O)Nc1ccccc1C(F)(F)F)c1ccccc1`, 972 s.
With `CCOC(=O)c1cc2ccsc2n1CC(=O)NCc1ccc(C)cc1` the figure was 981 s; with `Cc1ccc2c(NCc3ccc4c(c3)OCO4)c(C(=O)OC(C)C)cnc2n1`, 737 s.
The figure for `COc1ccc(-c2c(C)noc2NC(C)=O)cc1S(=O)(=O)Nc1cc(F)ccc1F` is 748 s; for `CCCN1C(=O)c2c(C(=O)NCc3ccc(OC(C)C)cc3)ncn2CC1(C)C(=O)NC1CCCC1` (stereo not drawn) it is 923 s.
As to `O=C(NCCC1=CCCCC1)C1CCN(c2ncccc2S(=O)(=O)N2CCCCC2)CC1`, the RP-LC retention time was 1080 s.
`COc1nc2ccccc2nc1N1CCCC(C(=O)Nc2ccccc2F)C1` (stereo not drawn) registered an RP-LC retention time of 1140 s.
The figure for `COc1ccc(OC)c(NC(=O)C(C)n2cnc3nc4c(cc3c2=O)CCCC4)c1` (stereo not drawn) is 755 s; for `CCOC(=O)c1cc(S(=O)(=O)N2CCCC2C(=O)Nc2ccc(C)c(F)c2)cn1C` (stereo not drawn) it is 988 s.
Consider `CCC1CN(C(=O)N2CCC(C(=O)NCCN3CCN(C)CC3)CC2)c2cc(C)ccc2O1` (stereo not drawn), for which the RP-LC retention time was determined as 619 s.
The figure for `Cn1cc(C=C2C(=O)Nc3cccnc32)c2ccccc21` is 750 s; for `O=C(c1ccc(Cn2cncn2)cc1)N1CCN(c2ccc(F)cc2)CC1` it is 700 s; for `COc1ccc(CNC(=O)Nc2cc3c(cc2N2CCCC2)n(C)c(=O)n3C)cc1` it is 750 s.
Take `COc1ccc(-c2ccc(=O)n(Cc3nc(-c4cccc(Cl)c4)no3)n2)cc1`: the RP-LC retention time was 1080 s.
Consider `FC(F)(F)c1cccc(-c2ccc(CNCC3CCCO3)o2)c1` (stereo not drawn), for which the RP-LC retention time is 703 s.
With `O=C(CN1CCC2(CC1)N=C(c1ccc(Cl)cc1)C(=O)N2)Nc1cc(F)ccc1F` the figure was 696 s; with `CCNC(=O)C1CCCN(c2nc3ncn(CC(=O)NC4CCCCC4)c(=O)c3s2)C1` (stereo not drawn), 658 s.
With `O=C(CN1C(=O)CC(c2ccccc2)S(=O)(=O)c2ccccc21)N1CCOCC1` (stereo not drawn), the RP-LC retention time came out at 704 s.
Consider `O=C(NC1CCN(Cc2ccccc2)CC1)c1ccc2nc3ccc(Cl)cc3c(=O)n2c1`, for which the RP-LC retention time was determined as 665 s.
The figure for `O=C1COc2ccccc2N1Cc1nc(-c2ccc(F)c(Br)c2)no1` is 1120 s; for `Cc1ccc(-c2noc(Cn3c(=O)n(Cc4ccco4)c(=O)c4ccccc43)n2)cc1` it is 1110 s.
On to `Cc1ccc(S(=O)(=O)N2CCC(C(=O)NCc3csc(-c4cccs4)n3)CC2)c(C)c1`, for which the RP-LC retention time stood at 977 s.
Compound `O=C(Nc1ncc([N+](=O)[O-])s1)c1ccc([N+](=O)[O-])c(Cl)c1` returned an RP-LC retention time of 946 s.
The figure for `Cc1ccccc1C(=O)N1CCN(S(=O)(=O)c2cc3c4c(c2)CCC(=O)N4CCC3)CC1` is 785 s; for `CCOC(=O)c1c(S(=O)(=O)N2CCC(C(=O)Nc3ccc(OC)cc3)CC2)c(C)n(C)c1C` it is 804 s; for `Cc1noc(-c2ccnc(-n3ncc(C(=O)N4CCSCC4)c3C)c2)n1` it is 785 s.
The figure for `CCn1cc(S(=O)(=O)N2CCCn3nc(-c4cccs4)cc3C2)cn1` is 816 s.
With `Cc1ccc(N2CCC(NC(=O)Nc3ccc(C)cc3C)C2=O)cc1` (stereo not drawn) the figure was 875 s; with `CCOC(=O)c1[nH]c(C)c(C(=O)N2CCC(CC(=O)N3CCN(CC)CC3)CC2)c1C`, 579 s.
With `Cc1cccc(-c2noc(Cc3nnc(-c4ccc(F)cc4)o3)n2)c1`, the RP-LC retention time was 1070 s.
The figure for `CN(CCc1noc(COc2ccccc2F)n1)C(=O)Nc1ccc(F)c(Cl)c1` is 966 s; for `Cn1nnnc1SCC(=O)Nc1nc(-c2ccccc2)c(-c2ccccc2)o1` it is 888 s.
The figure for `O=C(Nc1ccccc1Br)N1CCc2nc(-c3ccc(Cl)cc3)ncc2C1` is 1130 s.
With `CCOc1cccc(CN2CC[C@@](C)(O)[C@H](N3CCCC3)C2)c1` the figure was 562 s; with `CC(=O)N1CCC2(CC1)CC(CC(=O)NCc1ccc(C)o1)CCO2` (stereo not drawn), 625 s; with `Cc1ccc(-c2cc(C(=O)O)n(C)c2)cc1`, 856 s.
On to `Cc1cccc(-c2nc(Cn3nnc(-c4nc(-c5ccccc5)no4)c3C)c(C)o2)c1`, for which the RP-LC retention time is 1280 s.

For the origin of these results see the METLIN SMRT retention time set (Domingo-Almenara et al. 2019).
